Columns and labels:
Conditions in all cases: Dutch harbor, sea water
hard fouling = assay: Raft panel static immersion test of antifouling paints: hard fouling; set-up: key: G: Not present; Some light slime; F: Overall covered
Excerpt: (§1) The prepared paints have been evaluated on can stability, adhesion and film defects. The antifouling performance has been tested by application of the paints on raft panels. At first the steel panels had been protected with a standard anticorrosive system for marine environments (300 μm in dft). The to be tested antifouling paint had been applied in 2 layers with a total dry film thickness between 200 and 300 μm. Finally the panels were subjected to a static immersion test on rafts at sea harbors in Holland. The paints were inspected for the presence of fouling (% of area covered with fouling organisms) and of film defects every two months. The tested paint formulations are represented in Table 1.
(§2) Further explanations to Table 1: • 1. Model coatings of type 1 (MC-1A/B/C) are for the evaluation of the algicidal properties of the claimed structures at three different representative weight-% next to 35% cuprous oxide. Good performing references are model coating MC-2 and MC-3 [35% cuprous oxide+3% Seanine (MC-2) or 35% cuprous oxide+3% Irgarol (MC-3)]. Base level references are “cuprous oxide only” formulations [cuprous oxide only (35% (MC4) and 50% level (MC-5)]. • 2. Model coatings of type 6 and 7 are for the evaluation of the activity of the claimed structures against “hard fouling” in combination with two different types of algicides: claimed structure (1/2/4%; MC-6-A/B/C)+3% Seanine or claimed structure (1/2/4%; MC-7-A/B/C)+3% Irgarol). Base level references are “algicide only” formulations with 3% Seanine (MC-8) or 3% Irgarol (MC-9).
(§3) 3. Model coatings of type 10 (MC-10A/B) evaluate the total spectrum of biocidal activity by using the claimed structure as only biocide at 2 levels (4 and 8 w %). Good performing references are “cuprous oxide only” formulations [cuprous oxide 35% (MC-4) and 50% (MC-5)]. As blank serves model coating 11 (MC-1 1) containing no biocide at all.
(§4) The claimed structures were tested at several levels of dosage with and without an algicide as co-biocide. The following formulations were used for comparison: formulations with cuprous oxide, formulations with cuprous oxide and commercial co-biocides, a blank and two formulations that only contained the co-biocide and finally a commercial tributyltin-releasing self polishing system.
(§5) An even better protection can be obtained by combining claimed structures with co-biocides like the algicides that are commonly used for antifoulings.

algae = assay: Raft panel static immersion test of antifouling paints: algae; set-up: key: G: Not present; Some light slime; F: Overall covered
Excerpt: as §1, §2, §3, §4, §5

slime = assay: Raft panel static immersion test of antifouling paints: slime; set-up: key: G: Not present; Some light slime; F: Overall covered
Excerpt: as §1, §2, §3, §4, §5

fouling organisms = assay: Raft panel static immersion test of antifouling paints: overall; set-up: key: good (G); satisfactory (S); failure (F)
Excerpt: as §1, §2, §3, §4, §5

[1] = model coating 1A: 35% Cu2O + 1% of compound
[2] = model coating 1B: 35% Cu2O + 2% of compound
[3] = model coating 1C: 35% Cu2O + 3% of compound
[4] = model coating 6C: 4% of compound + 3% Seanine
[5] = model coating 10B: 8% of compound as only biocide
[6] = model coating 6A: 1% of compound + 3% Seanine
[7] = model coating 6B: 2% of compound + 3% Seanine
[8] = model coating 7A: 1% of compound + 3% Irgarol
[9] = model coating 7B: 2% of compound + 3% Irgarol
[10] = model coating 7C: 4% of compound + 3% Irgarol
[11] = model coating 10A: 4% of compound as only biocide

Row | Structure (SMILES) | Performance (1 yr immersed) Hard fouling (hard fouling; [1]) | Performance (1 yr immersed) Hard fouling (hard fouling; [2]) | Performance (1 yr immersed) Hard fouling (hard fouling; [3]) | Performance (1 yr immersed) Hard fouling (hard fouling; [4]) | Performance (1 yr immersed) Hard fouling (hard fouling; [5]) | Performance (1 yr immersed) Algae (algae; [2]) | Performance (1 yr immersed) Algae (algae; [3]) | Performance (1 yr immersed) Algae (algae; [6]) | Performance (1 yr immersed) Algae (algae; [7]) | Performance (1 yr immersed) Algae (algae; [4]) | Performance (1 yr immersed) Algae (algae; [8]) | Performance (1 yr immersed) Algae (algae; [9]) | Performance (1 yr immersed) Algae (algae; [10]) | Performance (1 yr immersed) Slime (slime; [1]) | Performance (1 yr immersed) Slime (slime; [2]) | Performance (1 yr immersed) Slime (slime; [3]) | Performance (1 yr immersed) Slime (slime; [6]) | Performance (1 yr immersed) Slime (slime; [7]) | Performance (1 yr immersed) Slime (slime; [4]) | Performance (1 yr immersed) Slime (slime; [8]) | further results
1 | COC(=O)NCCCCCCBr [Compound 2, N-methoxycarbonyl-6-bromohexylamine] | G | G | G | G | G | G | G | G | G | G | G | G | G | S | S | G | S | S | G | S | Performance (1 yr immersed) Slime (slime; [9]): S; Performance (1 yr immersed) Slime (slime; [10]): S; Performance (1 yr immersed) Slime (slime; [11]): F; Performance (1 yr immersed) Slime (slime; [5]): S; Performance (1 yr immersed) Overall (fouling organisms; [1]): S; Performance (1 yr immersed) Overall (fouling organisms; [2]): S; Performance (1 yr immersed) Overall (fouling organisms; [3]): G; Performance (1 yr immersed) Overall (fouling organisms; [6]): F; Performance (1 yr immersed) Overall (fouling organisms; [7]): S; Performance (1 yr immersed) Overall (fouling organisms; [4]): G; Performance (1 yr immersed) Overall (fouling organisms; [8]): F; Performance (1 yr immersed) Overall (fouling organisms; [9]): S; Performance (1 yr immersed) Overall (fouling organisms; [10]): S; Performance (1 yr immersed) Overall (fouling organisms; [11]): F; Performance (1 yr immersed) Overall (fouling organisms; [5]): S
2 | O=CNCCCCCCCCCC(Br)CBr (centres unmarked) [Compound 3, N-formyl-10,11-dibromoundecylamine] | G | G | G | G | G | G | G | G | G | G | G | G | G | S | S | G | S | S | G | S | Performance (1 yr immersed) Slime (slime; [9]): S; Performance (1 yr immersed) Slime (slime; [10]): S; Performance (1 yr immersed) Slime (slime; [11]): F; Performance (1 yr immersed) Slime (slime; [5]): S; Performance (1 yr immersed) Overall (fouling organisms; [1]): S; Performance (1 yr immersed) Overall (fouling organisms; [2]): S; Performance (1 yr immersed) Overall (fouling organisms; [3]): G; Performance (1 yr immersed) Overall (fouling organisms; [6]): F; Performance (1 yr immersed) Overall (fouling organisms; [7]): S; Performance (1 yr immersed) Overall (fouling organisms; [4]): G; Performance (1 yr immersed) Overall (fouling organisms; [8]): F; Performance (1 yr immersed) Overall (fouling organisms; [9]): S; Performance (1 yr immersed) Overall (fouling organisms; [10]): S; Performance (1 yr immersed) Overall (fouling organisms; [11]): F; Performance (1 yr immersed) Overall (fouling organisms; [5]): S
3 | O=CNCCCCCCCCCCCBr [Compound 7, N-formyl-11-bromo-undecyl-1-amine] | G | G | G | G | G | G | G | G | G | G | G | G | G | S | S | G | S | S | G | S | Performance (1 yr immersed) Slime (slime; [9]): S; Performance (1 yr immersed) Slime (slime; [10]): S; Performance (1 yr immersed) Slime (slime; [11]): F; Performance (1 yr immersed) Slime (slime; [5]): S; Performance (1 yr immersed) Overall (fouling organisms; [1]): S; Performance (1 yr immersed) Overall (fouling organisms; [2]): S; Performance (1 yr immersed) Overall (fouling organisms; [3]): G; Performance (1 yr immersed) Overall (fouling organisms; [6]): F; Performance (1 yr immersed) Overall (fouling organisms; [7]): S; Performance (1 yr immersed) Overall (fouling organisms; [4]): G; Performance (1 yr immersed) Overall (fouling organisms; [8]): F; Performance (1 yr immersed) Overall (fouling organisms; [9]): S; Performance (1 yr immersed) Overall (fouling organisms; [10]): S; Performance (1 yr immersed) Overall (fouling organisms; [11]): F; Performance (1 yr immersed) Overall (fouling organisms; [5]): S
4 | CCCCCCCCCCCNC=O [Compound 9, N-formyl-1-aminoundecane] | G | G | G | G | G | G | G | G | G | G | G | G | G | S | S | G | S | S | G | S | Performance (1 yr immersed) Slime (slime; [9]): S; Performance (1 yr immersed) Slime (slime; [10]): S; Performance (1 yr immersed) Slime (slime; [11]): F; Performance (1 yr immersed) Slime (slime; [5]): S; Performance (1 yr immersed) Overall (fouling organisms; [1]): S; Performance (1 yr immersed) Overall (fouling organisms; [2]): S; Performance (1 yr immersed) Overall (fouling organisms; [3]): G; Performance (1 yr immersed) Overall (fouling organisms; [6]): F; Performance (1 yr immersed) Overall (fouling organisms; [7]): S; Performance (1 yr immersed) Overall (fouling organisms; [4]): G; Performance (1 yr immersed) Overall (fouling organisms; [8]): F; Performance (1 yr immersed) Overall (fouling organisms; [9]): S; Performance (1 yr immersed) Overall (fouling organisms; [10]): S; Performance (1 yr immersed) Overall (fouling organisms; [11]): F; Performance (1 yr immersed) Overall (fouling organisms; [5]): S

— patent US6929685B2, “Alkylamine derivatives as antifouling agents” (Bayer Atiengesellschaft, priority 2001, dated 2005)
